Counter-ions that a name gives are not always drawn.

T1 sequence (P46095 whole entry): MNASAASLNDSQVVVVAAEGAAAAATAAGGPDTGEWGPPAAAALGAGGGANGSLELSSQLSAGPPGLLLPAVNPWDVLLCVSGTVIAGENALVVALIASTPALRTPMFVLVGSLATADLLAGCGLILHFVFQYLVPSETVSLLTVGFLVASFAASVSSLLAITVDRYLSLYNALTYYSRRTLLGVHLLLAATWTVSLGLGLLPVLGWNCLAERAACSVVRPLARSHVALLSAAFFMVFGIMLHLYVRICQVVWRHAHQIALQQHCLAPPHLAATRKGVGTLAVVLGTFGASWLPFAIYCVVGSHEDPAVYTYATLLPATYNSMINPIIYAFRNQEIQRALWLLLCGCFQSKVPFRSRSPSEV

This experiment concerns the target T1, GPR6 receptor (Homo sapiens, UniProt P46095).
T1 construct: expressed in transfected cells
In words: Inhibition of cAMP Activity of GPR6 In Vitro Assay (CHO-K1 cells, HTRF cAMP). The following applies: compounds of Compound Table 1; inhibition of constitutive cAMP activity of GPR6 expressed in CHO-K1 cells; approximate IC50; read-out: IC50. The format is cell-based. How it is done:
Inhibition of cAMP Activity of GPR6 In Vitro Assay
This cell based assay measures the ability of compounds to inhibit the constitutive cAMP activity of GPR6 receptor expressed in CHO-K1 cells. CHO cells were stably expressed with GPR6 receptor, whose expression is controlled by a tetracycline inducable element. The cells were cultured in medium containing F12K, 10% FBS, 1% Penn/Strep, 200 ug/mL Hygromycin. GPR6 receptor expression was induced for 20 hrs with 1 μg/ml doxycycline (sigma D9891) in growth media. After addition of doxycycline cells were plated at a density of 250-500 cells per well in half-volume black clear bottom plates (Costar) and place in an incubator (37°, 5% C(O)2) for 20 hours prior to cAMP assays.
Culture media was removed from cells and they were washed with 50 μL of Ringer's Buffer (MgCl2 0.047 mg/mL, NaH2PO4 0.18 mg/mL, Na2HPO4 0.1 mg/mL, KCl 0.34 mg/mL, NaHC(O)3 1.26 mg/mL, D-glucose 1.8 mg/mL, NaCl 7 mg/mL; pH=7.4). Compounds suspended in DMSO were diluted in Ringer's Buffer containing 0.5% fatty acid free BSA and incubated on cells for 45 min at […] and 5% C(O)2. After incubation cells were incubated for 10 min at room temp with Eu-cAMP tracer solution from a Perkin Elmer Lance HTRF UltracAMP assay kit (TRF0264). Then ULight™-anti-cAMP solution from the Lance HTRF kit was added and incubated on a shaker at room temp for 1 hour prior to HTRF detection in a BMG PolarStar Omega.
IC50 curves were generated with a four-parameter logistic equation using GraphPad Prism 5.03.
(In general: In TR-FRET formats the signal depends on donor and acceptor labels being close together.)
The term IC50 denotes the concentration that gives 50% inhibition. In the case of “N-cyclopropyl-3-(4-((5-methylisoxazol-3-yl)methyl)piperazin-1-yl)quinoxalin-2-amine, 2,2,2-trifluoroacetic acid salt [Cpd 158]”, the half-maximal inhibitory concentration (IC50) was 440 nM. Turning to “2-(cyclopropylamino)-3-(4-(2,5-dichloroisonicotinoyl)piperazin-1-yl)quinoxaline-6-carbonitrile [Cpd 265]”, the IC50 is 300 nM.

With “3-(4-((3-chloro-5-fluoro-2-methylphenyl)sulfonyl)piperazin-1-yl)-2-(cyclopropylamino)quinoxaline-6-carbonitrile, 2,2,2-trifluoroacetic acid salt [Cpd 282]”, the concentration for half-maximal inhibition (IC50) came out at 4290 nM.

For “(2-fluoro-4-methoxyphenyl)(1-(3-(isopropylamino)pyrazino[2,3-d]pyridazin-2-yl)piperidin-4-yl)methanone, 2,2,2-trifluoroacetic acid salt [Cpd 641]”, the IC50 was determined as 14 nM. Turning to `CC(C)CCNc1nc2ccccc2nc1N1CCN(Cc2cc(Cl)ccc2Cl)CC1` [Cpd 115, 3-(4-(2,5-dichlorobenzyl)piperazin-1-yl)-N-isopentylquinoxalin-2-amine, 2,2,2-trifluoroacetic acid salt], the half-maximal inhibitory concentration (IC50) turned out to be 3980 nM. Regarding “(S)—N-(sec-butyl)-3-(4-(2-fluoro-4-methoxyphenoxy)piperidin-1-yl)pyrazino[2,3-d]pyridazin-2-amine, 2,2,2-trifluoroacetic acid salt [Cpd 637]”, the IC50 came to 26 nM. In the case of “N-cyclopropyl-3-(4-(3-isopropylbenzyl)piperazin-1-yl)quinoxalin-2-amine, 2,2,2-trifluoroacetic acid salt [Cpd 211]”, the half-inhibitory concentration (IC50) was found to be 9440 nM. As to “3-(4-((5-chloro-2-fluorophenyl)difluoromethyl)piperidin-1-yl)-N-cyclopropyl-5-methylpyrido[3,4-b]pyrazin-2-amine [Cpd 536]”, the half-inhibitory concentration (IC50) was determined as 930 nM. With `CC(C)Nc1nc2ccccc2nc1N1CCN(Cc2cc(Cl)ccc2Cl)CC1` [Cpd 111, 3-(4-(2,5-dichlorobenzyl)piperazin-1-yl)-N-isopropylquinoxalin-2-amine, 2,2,2-trifluoroacetic acid salt], the IC50 came out at 3310 nM. “3-(4-(2,4-difluorobenzyl)piperidin-1-yl)-N-(2-methoxyethyl)pyrido[3,4-b]pyrazin-2-amine, 2,2,2-trifluoroacetic acid salt [Cpd 519]”: the IC50 was found to be 250 nM.

Regarding “N-ethyl-3-(4-(2-fluoro-4-methoxyphenoxy)piperidin-1-yl)pyrido[3,4-b]pyrazin-2-amine, 2,2,2-trifluoroacetic acid salt [Cpd 622]”, the half-inhibitory concentration (IC50) is 29 nM. Take “1-(4-((1-(2-(cyclopropylamino)pyrido[3,4-b]pyrazin-3-yl)piperidin-4-yl)oxy)phenyl)ethanone, 2,2,2-trifluoroacetic acid salt [Cpd 582]”: the IC50 worked out at 7 nM.

In the case of “(1-(2-(cyclopropylamino)pyrido[3,4-b]pyrazin-3-yl)piperidin-4-yl)(thiophen-3-yl)methanone, 2,2,2-trifluoroacetic acid salt [Cpd 584]”, the concentration for half-maximal inhibition (IC50) stood at 1740 nM.

With `Clc1cccc(CN2CCN(c3nc4ccccc4nc3Nc3ccc(Br)cc3)CC2)c1` [Cpd 21, N-(4-bromophenyl)-3-(4-(3-chlorobenzyl)piperazin-1-yl)quinoxalin-2-amine, 2,2,2-trifluoroacetic acid salt], the 50% inhibitory concentration (IC50) was 3030 nM.

On to “(S)-3-(cyclopropylamino)-2-(4-((2,4-difluorophenyl)fluoromethyl)piperidin-1-yl)pyrido[3,4-b]pyrazine-7-carbonitrile [Cpd 550]”, for which the IC50 worked out at 17 nM. Regarding “(1-(2-(cyclopropylamino)pyrido[3,4-b]pyrazin-3-yl)piperidin-4-yl)(thiophen-2-yl)methanone, 2,2,2-trifluoroacetic acid salt [Cpd 573]”, the IC50 was found to be 2800 nM. “N-cyclopropyl-3-(4-(2,4-difluorophenoxy)piperidin-1-yl)pyrazino[2,3-d]pyridazin-2-amine, 2,2,2-trifluoroacetic acid salt [Cpd 619]”: the concentration for half-maximal inhibition (IC50) turned out to be 14 nM.

With “3-(4-(3-bromo-4-fluorobenzoyl)piperazin-1-yl)-2-(cyclopropylamino)quinoxaline-6-carbonitrile, 2,2,2-trifluoroacetic acid salt [Cpd 256]”, the IC50 turned out to be 380 nM. “(1-(2-(cyclopropylamino)pyrido[3,4-b]pyrazin-3-yl)piperidin-4-yl)(o-tolyl)methanone, 2,2,2-trifluoroacetic acid salt [Cpd 565]”: the IC50 came out at 15400 nM. Turning to `Clc1ccc(Cl)c(CN2CCN(c3nc4ncccc4nc3NC3CC3)CC2)c1` [Cpd 63, N-cyclopropyl-3-(4-(2,5-dichlorobenzyl)piperazin-1-yl)pyrido[2,3-b]pyrazin-2-amine], the concentration for half-maximal inhibition (IC50) was found to be 1130 nM.

Turning to `COc1ccc(OC2CCN(c3nc4c(C(=O)N(C)C)nccc4nc3NC3CC3)CC2)c(F)c1` [Cpd 604, 2-(cyclopropylamino)-3-(4-(2-fluoro-4-methoxyphenoxy)piperidin-1-yl)-N,N-dimethylpyrido[3,4-b]pyrazine-5-carboxamide], the IC50 is 54 nM.

“(S)—N-cyclopropyl-3-(4-((2,4-difluorophenyl)fluoromethyl)piperidin-1-yl)pyrazino[2,3-d]pyridazin-2-amine, 2,2,2-trifluoroacetic acid salt [Cpd 594]”: the concentration for half-maximal inhibition (IC50) was 31 nM. With “4-chloro-3-(1-(7-chloro-2-(cyclopropylamino)pyrido[3,4-b]pyrazin-3-yl)piperidine-4-carbonyl)benzonitrile [Cpd 595]” the figure was 478 nM; with “4-((1-(2-(cyclopropylamino)pyrido[3,4-b]pyrazin-3-yl)piperidin-4-yl)oxy)-3-fluorophenol, 2,2,2-trifluoroacetic acid salt [Cpd 615]”, 88 nM. Take “(R)-2-((3-(4-(2,5-dichlorobenzyl)piperazin-1-yl)quinoxalin-2-yl)amino)propan-1-ol, 2,2,2-trifluoroacetic acid salt [Cpd 172]”: the half-maximal inhibitory concentration (IC50) came out at 2340 nM.

In the case of “5-chloro-1-((1-(2-(cyclopropylamino)pyrido[3,4-b]pyrazin-3-yl)piperidin-4-yl)methyl)pyridin-2(1H)-one [Cpd 532]”, the IC50 turned out to be 380 nM. For the compound “(2-chloro-5-fluorophenyl)(1-(2-(cyclopropylamino)pyrido[3,4-b]pyrazin-3-yl)piperidin-4-yl)methanone, 2,2,2-trifluoroacetic acid salt [Cpd 567]”, the 50% inhibitory concentration (IC50) worked out at 5780 nM. On to `CC(C)Nc1nc2cnncc2nc1N1CCC(Oc2ccc(Cl)cc2F)CC1` [Cpd 644, 3-(4-(4-chloro-2-fluorophenoxy)piperidin-1-yl)-N-isopropylpyrazino[2,3-d]pyridazin-2-amine, 2,2,2-trifluoroacetic acid salt], for which the IC50 worked out at 7 nM. In the case of “3-(4-(2,5-difluorobenzyl)piperazin-1-yl)-2-((3,3,3-trifluoropropyl)amino)quinoxaline-6-carbonitrile, 2,2,2-trifluoroacetic acid salt [Cpd 400]”, the IC50 worked out at 390 nM.

`Cc1cc(C(=O)N2CCN(c3nc4ccccc4nc3NC3CC3)CC2)no1` [Cpd 98, (4-(3-(cyclopropylamino)quinoxalin-2-yl)piperazin-1-yl)(5-methylisoxazol-3-yl)methanone]: the half-inhibitory concentration (IC50) was determined as 3210 nM.

Source of the values: patent US9770452B2, “Quinoxaline derivatives as GPR6 modulators” (Takeda Pharmaceutical Company Limited, priority 2012, dated 2017).
